Counter-ions that a name gives are not always drawn.
What was measured:
[1] = test system: DOPAC (3,4-dihydroxyphenylacetic acid) in the rat striatum; assay: Increase of DOPAC in the rat striatum after systemic administration (in vivo neurochemistry); conditions: sc, systemic administration (s.c.), curve fitting, 95% range printed in the row below each value, read-out: ED50 DOPAC* (estimated ED50 on increase of DOPAC in the rat striatum)
Source text: After the behavioural activity sessions, the rats are decapitated and their brains rapidly taken out and put on an ice-cold petri-dish. The limbic forebrain, the striatum, the frontal cortex and the remaining hemispheral parts of each rat are dissected and frozen. Each brain part is subsequently analyzed with respect to its content of monoamines and their metabolites.
The monoamine transmitter substances (NA (noradrenaline), DA (dopamine), 5-HT (serotonin)) as well as their amine (NM (normethanephrine), 3-MT (3-methoxytyramine)) and acid (DOPAC (3,4-dihydroxyphenylacetic acid), 5-HIAA (5-hydroxyindoleacetic acid), HVA (homovanillic acid)) metabolites are quantified in brain tissue homogenates by HPLC separations and electrochemical detection
The analytical method is based on two chromatographic separations dedicated for amines or acids. Two chromatographic systems share a common auto injector with a 10-port valve and two sample loops for simultaneous injection on the two systems. Both systems are equipped with a reverse phase column (Luna C18(2), dp 3 μm, 50*2 mm i.d., Phenomenex) and electrochemical detection is accomplished at two potentials on glassy carbon electrodes (MF-1000, Bioanalytical Systems, Inc.). The column effluent is passed via a T-connection to the detection cell or to a waste outlet. This is accomplished by two solenoid valves, which block either the waste or detector outlet. By preventing the chromatographic front from reaching the detector, better detection conditions are achieved. The aqueous mobile phase (0.4 ml/min) for the acid system contains citric acid 14 mM, sodium citrate 10 mM, MeOH 15% (v/v) and EDTA 0.1 mM. Detection potentials relative to Ag/AgCl reference are 0.45 and 0.60V. The aqueous ion pairing mobile phase (0.5 ml/min) for the amine system contains citric acid 5 mM, sodium citrate 10 mM, MeOH 9% (v/v), MeCN 10.5% v/v), decane sulfonic acid 0.45 mM, and EDTA 0.1 mM. Detection potentials relative to Ag/AgCl reference are 0.45 and 0.65V.
ED50 values for the increase of DOPAC in striatum are calculated by curve fitting.

drug-naive rats = assay: Locomotor activity in drug-naive rats (in vivo behaviour); set-up: species or system rat; conditions: recorded for 60 minutes immediately after drug administration
Source text: Photobeam sensors are spaced 2.5 cm apart.

melting point | SMILES | ED50 [1] | Locomotor activity (counts/60 min ± SEM) (drug-naive rats; 3.7 μmol/kg) | Locomotor activity (counts/60 min ± SEM) (drug-naive rats; 11 μmol/kg) | Locomotor activity (counts/60 min ± SEM) (drug-naive rats; 33 μmol/kg)
 | CCCNCC1COc2ccc(OS(=O)(=O)C(F)(F)F)cc2O1 (centres unmarked) [Example 6, 3-[(PROPYLAMINO)METHYL]-2,3-DIHYDRO-1,4-BENZODIOXIN-6-YL TRIFLUOROMETHANESULFONATE] | 12 µmol/kg | 9495 ± 2036 counts/60 min | 10705 ± 1903 counts/60 min | 8064 ± 707 counts/60 min
215 °C | Fc1ccc2c(c1)O[C@@H](CN1CCCC1)CO2 (as salt: hydrochloric acid salt) [Example 9, 1-{[(2S)-7-FLUORO-2,3-DIHYDRO-1,4-BENZODIOXIN-2-YL]METHYL}PYRROLIDINE] |  |  |  | 
157 °C | CCCNCC1COc2c(F)cc(F)cc2O1 (centres unmarked) (as salt: hydrochloric acid salt) [Example 8, N-[(5,7-DIFLUORO-2,3-DIHYDRO-1,4-BENZODIOXIN-2-YL)METHYL]PROPAN-1-AMINE] |  |  |  | 
163 °C | CCCNCC1COc2ccc(OS(=O)(=O)C(F)(F)F)cc2O1 (centres unmarked) (as salt: fumaric acid salt) [Example 6, 3-[(PROPYLAMINO)METHYL]-2,3-DIHYDRO-1,4-BENZODIOXIN-6-YL TRIFLUOROMETHANESULFONATE] |  |  |  | 
194 °C | CCCNC[C@H]1COc2ccc(Br)cc2O1 (as salt: hydrochloric acid salt) [Example 1, N-{[(2S)-7-BROMO-2,3-DIHYDRO-1,4-BENZODIOXIN-2-YL]METHYL}PROPAN-1-AMINE] |  |  |  | 
 | CCCNCC1COc2ccc(F)c(F)c2O1 (centres unmarked) [Example 7, N-[(7,8-DIFLUORO-2,3-DIHYDRO-1,4-BENZODIOXIN-2-YL)METHYL]PROPAN-1-AMINE] | 3.1 µmol/kg | 7932 ± 2067 counts/60 min | 6884 ± 400 counts/60 min | 4408 ± 212 counts/60 min
187 °C | CCCNCC1COc2ccc(F)cc2O1 (centres unmarked) (as salt: hydrochloric acid salt) [Example 3, N-[(7-FLUORO-2,3-DIHYDRO-1,4-BENZODIOXIN-2-YL)METHYL]PROPAN-1-AMINE] |  |  |  | 
 | CCCNCC1COc2c(F)cc(F)cc2O1 (centres unmarked) [Example 8, N-[(5,7-DIFLUORO-2,3-DIHYDRO-1,4-BENZODIOXIN-2-YL)METHYL]PROPAN-1-AMINE] | 14 µmol/kg | 9266 ± 2706 counts/60 min | 8320 ± 2405 counts/60 min | 5457 ± 536 counts/60 min
 | CCCNC[C@H]1COc2ccc(C(F)(F)F)cc2O1 [Example 58, N-{[(2S)-7-(TRIFLUOROMETHYL)-2,3-DIHYDRO-1,4-BENZODIOXIN-2-YL]METHYL}PROPAN-1-AMINE] | < 3.7 µmol/kg |  |  | 
 | Fc1ccc2c(c1)O[C@@H](CN1CCCC1)CO2 [Example 9, 1-{[(2S)-7-FLUORO-2,3-DIHYDRO-1,4-BENZODIOXIN-2-YL]METHYL}PYRROLIDINE] |  | 5419 ± 1414 counts/60 min | 2769 ± 647 counts/60 min | 1944 ± 482 counts/60 min
 | CCCNC[C@H]1COc2ccc(Br)cc2O1 [Example 1, N-{[(2S)-7-BROMO-2,3-DIHYDRO-1,4-BENZODIOXIN-2-YL]METHYL}PROPAN-1-AMINE] | 3.4 µmol/kg | 6714 ± 601 counts/60 min | 5111 ± 620 counts/60 min | 1326 ± 131 counts/60 min
262 °C | CCCNCC1COc2cc(F)c(F)cc2O1 (centres unmarked) (as salt: hydrobromic acid salt) [Example 2, N-[(6,7-DIFLUORO-2,3-DIHYDRO-1,4-BENZODIOXIN-2-YL)METHYL]PROPAN-1-AMINE] |  |  |  | 
166 °C | CCCNC[C@H]1COc2ccc(C(F)(F)F)cc2O1 (as salt: hydrochloric acid salt) [Example 58, N-{[(2S)-7-(TRIFLUOROMETHYL)-2,3-DIHYDRO-1,4-BENZODIOXIN-2-YL]METHYL}PROPAN-1-AMINE] |  |  |  | 
184 °C | CCCNCC1COc2ccc(F)c(F)c2O1 (centres unmarked) (as salt: hydrochloric acid salt) [Example 7, N-[(7,8-DIFLUORO-2,3-DIHYDRO-1,4-BENZODIOXIN-2-YL)METHYL]PROPAN-1-AMINE] |  |  |  | 
191 °C | CCCNCC1COc2ccc(Cl)cc2O1 (centres unmarked) (as salt: hydrochloric acid salt) [Example 4, N-[(7-CHLORO-2,3-DIHYDRO-1,4-BENZODIOXIN-2-YL)METHYL]PROPAN-1-AMINE] |  |  |  | 
